Source: ChEMBL document CHEMBL2029240 (ACS Med Chem Lett, 2011)

Experiments:
[1] = target: C-C chemokine receptor type 2 (Homo sapiens, UniProt P41597)
Description: Displacement of [125I]MCP1 from human CCR2 in PBMC after 30 mins by gamma counting

hERG (KCNH2) = hERG (KCNH2) (Homo sapiens, UniProt Q12809); experiment: Inhibition of human ERG at 10 uM by patch clamp assay
[2] = target: Voltage-gated inwardly rectifying potassium channel KCNH2 (Homo sapiens, UniProt Q12809); experiment: Displacement of [3H]dofetilide from human ERG
Voltage-gated inwardly rectifying potassium channel KCNH2, sequence (Q12809 whole entry): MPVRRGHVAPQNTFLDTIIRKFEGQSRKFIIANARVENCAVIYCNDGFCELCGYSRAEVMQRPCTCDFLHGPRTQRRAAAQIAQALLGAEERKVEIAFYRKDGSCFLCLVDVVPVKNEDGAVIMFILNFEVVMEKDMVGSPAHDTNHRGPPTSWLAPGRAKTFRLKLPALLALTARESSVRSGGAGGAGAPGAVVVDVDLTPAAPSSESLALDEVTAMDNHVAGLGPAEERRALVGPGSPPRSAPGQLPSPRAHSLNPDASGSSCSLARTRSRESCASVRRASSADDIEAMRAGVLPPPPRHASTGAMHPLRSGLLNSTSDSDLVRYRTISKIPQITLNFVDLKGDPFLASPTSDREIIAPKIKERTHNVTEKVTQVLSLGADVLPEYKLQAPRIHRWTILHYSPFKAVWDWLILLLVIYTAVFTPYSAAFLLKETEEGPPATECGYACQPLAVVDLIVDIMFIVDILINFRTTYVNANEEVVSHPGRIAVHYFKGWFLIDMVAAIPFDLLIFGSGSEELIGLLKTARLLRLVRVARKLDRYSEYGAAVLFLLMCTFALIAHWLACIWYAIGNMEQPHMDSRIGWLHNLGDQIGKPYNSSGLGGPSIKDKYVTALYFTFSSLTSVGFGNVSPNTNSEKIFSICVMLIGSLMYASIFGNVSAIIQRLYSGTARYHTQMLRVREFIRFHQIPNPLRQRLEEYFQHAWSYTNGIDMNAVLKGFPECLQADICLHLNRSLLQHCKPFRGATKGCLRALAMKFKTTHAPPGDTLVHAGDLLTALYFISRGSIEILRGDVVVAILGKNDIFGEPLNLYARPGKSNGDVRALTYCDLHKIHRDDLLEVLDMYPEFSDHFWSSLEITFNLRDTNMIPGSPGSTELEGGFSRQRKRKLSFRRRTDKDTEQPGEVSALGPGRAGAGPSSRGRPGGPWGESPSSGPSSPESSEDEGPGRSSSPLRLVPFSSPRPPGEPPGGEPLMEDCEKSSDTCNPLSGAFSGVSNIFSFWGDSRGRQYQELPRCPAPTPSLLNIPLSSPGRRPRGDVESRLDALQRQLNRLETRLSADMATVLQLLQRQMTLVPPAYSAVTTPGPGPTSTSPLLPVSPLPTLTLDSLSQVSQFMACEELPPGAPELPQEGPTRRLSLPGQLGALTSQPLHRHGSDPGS

C-C chemokine receptor type 2, sequence (P41597 whole entry): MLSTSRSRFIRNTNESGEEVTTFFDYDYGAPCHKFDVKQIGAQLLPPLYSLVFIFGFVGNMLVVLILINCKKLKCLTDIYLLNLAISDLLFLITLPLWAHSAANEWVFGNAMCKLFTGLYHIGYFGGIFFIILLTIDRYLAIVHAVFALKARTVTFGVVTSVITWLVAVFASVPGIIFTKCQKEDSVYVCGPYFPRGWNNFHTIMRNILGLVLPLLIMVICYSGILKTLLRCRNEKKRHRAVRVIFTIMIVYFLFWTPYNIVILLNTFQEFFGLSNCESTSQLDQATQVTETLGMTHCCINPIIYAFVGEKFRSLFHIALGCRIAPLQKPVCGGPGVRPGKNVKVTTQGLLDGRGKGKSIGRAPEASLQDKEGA
hERG (KCNH2), sequence (Q12809 whole entry): as the sequence (Q12809 whole entry) above

Row | IC50 [1] | SMILES | inhibition at 10 µM (hERG (KCNH2)) | IC50 [2]
1 | 860 nM | O=C(NCC(=O)N1CC[C@@H](N[C@H]2CC[C@@H](c3ccccc3)CC2)C1)c1cccc(C(F)(F)F)c1 |  | 
2 | 35 nM | O=C(NCC(=O)N1CC[C@H](N[C@H]2CC[C@@H](c3ccccc3)CC2)C1)c1cccc(C(F)(F)F)c1 |  | 
3 | 84 nM | CN([C@H]1CCN(C(=O)CNC(=O)c2cccc(C(F)(F)F)c2)C1)[C@H]1CC[C@@H](c2ccccc2)CC1 |  | 
4 | 65 nM | O=C(NCC(=O)N1CC[C@H](N[C@H]2CC[C@@](O)(c3ccccc3)CC2)C1)c1cccc(C(F)(F)F)c1 |  | 
5 | 95 nM | COc1ccc([C@]2(O)CC[C@H](N[C@H]3CCN(C(=O)CNC(=O)c4cccc(C(F)(F)F)c4)C3)CC2)cn1 |  | 
6 |  | O=C(NCC(=O)N1CC[C@H](N[C@H]2CC[C@@](O)(c3ccccn3)CC2)C1)c1cccc(C(F)(F)F)c1 | 34% | > 30000 nM
7 | 18 nM | O=C(NCC(=O)N1CC[C@H](N[C@H]2CC[C@@](O)(c3nccs3)CC2)C1)c1cccc(C(F)(F)F)c1 |  | 
8 |  | Cc1ccc([C@]2(O)CC[C@H](N[C@H]3CCN(C(=O)CNC(=O)c4cccc(C(F)(F)F)c4)C3)CC2)nc1 | 71% | 24000 nM
9 |  | O=C(NCC(=O)N1CC[C@H](N[C@H]2CC[C@@](O)(c3ccc(-c4cccnc4)cn3)CC2)C1)c1cccc(C(F)(F)F)c1 |  | 30000 nM
